Source: US20240051985A1, “METTL3 MODULATORS” (ACCENT THERAPEUTICS, INC., priority 2020, published 2024)

Experiments:
PRMT5-MEP50 = PRMT5-MEP50 (Homo sapiens, UniProt O14744); test: PRMT5 assay (3H-SAM flashplate); conditions: Table 4; PRMT5 biochemical assay
Method in brief: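 Radiometric methyl-transfer read-out: 3H-methyl transferred to a 3′-biotinylated, acetylated H4 peptide substrate (100 nM) from 3H-SAM (250 nM), captured on streptavidin scintillation plates. Enzyme complex 2.5 nM, pH 8.0 Tris buffer with DTT and Tween, compound preincubation 5 min, 60 min reaction stopped with excess unlabeled SAM.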

FLT3 = biological target: T1, FLT3 (Homo sapiens, UniProt P36888); test: FLT3 Caliper assay; type: biochemical; conditions: Table 4; read-out: FLT3 Calipher assay IC50
T1 sequence (P36888 27-993): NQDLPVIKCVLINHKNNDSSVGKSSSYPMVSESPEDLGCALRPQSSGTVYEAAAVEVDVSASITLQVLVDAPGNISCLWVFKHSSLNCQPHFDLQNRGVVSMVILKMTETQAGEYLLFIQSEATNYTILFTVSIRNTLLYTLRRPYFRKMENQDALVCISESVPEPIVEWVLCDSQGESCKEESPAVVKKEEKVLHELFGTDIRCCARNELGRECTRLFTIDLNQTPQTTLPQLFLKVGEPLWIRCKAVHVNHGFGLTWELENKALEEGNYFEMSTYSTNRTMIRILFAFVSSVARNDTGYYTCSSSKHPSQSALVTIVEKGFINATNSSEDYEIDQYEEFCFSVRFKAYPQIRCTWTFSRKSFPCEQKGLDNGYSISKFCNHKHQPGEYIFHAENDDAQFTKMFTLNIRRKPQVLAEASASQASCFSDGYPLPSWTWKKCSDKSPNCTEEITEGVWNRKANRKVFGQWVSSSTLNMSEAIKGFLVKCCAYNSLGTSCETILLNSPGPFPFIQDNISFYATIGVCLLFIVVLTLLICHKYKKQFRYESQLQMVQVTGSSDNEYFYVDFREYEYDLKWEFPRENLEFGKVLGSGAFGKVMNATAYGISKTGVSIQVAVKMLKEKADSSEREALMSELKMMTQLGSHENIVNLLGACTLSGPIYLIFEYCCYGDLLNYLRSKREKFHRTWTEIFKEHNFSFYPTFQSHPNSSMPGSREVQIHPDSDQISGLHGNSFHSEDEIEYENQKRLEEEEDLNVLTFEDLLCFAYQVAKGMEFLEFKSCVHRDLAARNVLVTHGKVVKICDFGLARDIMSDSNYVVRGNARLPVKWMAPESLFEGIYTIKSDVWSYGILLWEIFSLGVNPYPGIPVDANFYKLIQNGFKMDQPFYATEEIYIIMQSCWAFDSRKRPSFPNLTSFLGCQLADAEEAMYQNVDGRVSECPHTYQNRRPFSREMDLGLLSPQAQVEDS
Description: (§1) FLT3/FLT3-ITD Caliper Assays
(§2) Assays were performed in a 20 μl-volume in 384-well polypropylene microplates (Perkin Elmer Proxiplate, cat. No. 6059480) at ambient temperature. Optimized 1× assay buffer was 50 mM Hepes pH 7.5, 2 mM DTT, 0.01% Tween, 0.01% BSA, 10 mM MgCl2. For compound screening FLT3 (final concentration, f.c.=0.9 nM) or FLT3-ITD (f.c.=7 nM) was added using a Multidrop Combi (ThermoFisher Scientific, Waltham, MA) and preincubated for 10 min. Reactions were started by adding fluorescein-peptide (sequence 5-FAM-EAIYAAPFAKKK-CONH2) (f.c.=300 μM) and ATP (FLT3 f.c.=97 μM FLT3-ITD f.c.=146 μM) substrates. Reactions proceeded for 60 minutes. The reactions were stopped with LabChip ProfilerPro Separation Buffer containing EDTA (f.c.=20 mM). The plates were read on a Caliper microfluidics reader (PerkinElmer, Waltham, MA).

FLT3-ITD = biological target: T2, FLT3-ITD (Homo sapiens, UniProt P36888); test: FLT3-ITD Caliper assay; type: biochemical; conditions: Table 4; read-out: FLT3-ITD Calipher assay IC50
T2 sequence (P36888 1-993): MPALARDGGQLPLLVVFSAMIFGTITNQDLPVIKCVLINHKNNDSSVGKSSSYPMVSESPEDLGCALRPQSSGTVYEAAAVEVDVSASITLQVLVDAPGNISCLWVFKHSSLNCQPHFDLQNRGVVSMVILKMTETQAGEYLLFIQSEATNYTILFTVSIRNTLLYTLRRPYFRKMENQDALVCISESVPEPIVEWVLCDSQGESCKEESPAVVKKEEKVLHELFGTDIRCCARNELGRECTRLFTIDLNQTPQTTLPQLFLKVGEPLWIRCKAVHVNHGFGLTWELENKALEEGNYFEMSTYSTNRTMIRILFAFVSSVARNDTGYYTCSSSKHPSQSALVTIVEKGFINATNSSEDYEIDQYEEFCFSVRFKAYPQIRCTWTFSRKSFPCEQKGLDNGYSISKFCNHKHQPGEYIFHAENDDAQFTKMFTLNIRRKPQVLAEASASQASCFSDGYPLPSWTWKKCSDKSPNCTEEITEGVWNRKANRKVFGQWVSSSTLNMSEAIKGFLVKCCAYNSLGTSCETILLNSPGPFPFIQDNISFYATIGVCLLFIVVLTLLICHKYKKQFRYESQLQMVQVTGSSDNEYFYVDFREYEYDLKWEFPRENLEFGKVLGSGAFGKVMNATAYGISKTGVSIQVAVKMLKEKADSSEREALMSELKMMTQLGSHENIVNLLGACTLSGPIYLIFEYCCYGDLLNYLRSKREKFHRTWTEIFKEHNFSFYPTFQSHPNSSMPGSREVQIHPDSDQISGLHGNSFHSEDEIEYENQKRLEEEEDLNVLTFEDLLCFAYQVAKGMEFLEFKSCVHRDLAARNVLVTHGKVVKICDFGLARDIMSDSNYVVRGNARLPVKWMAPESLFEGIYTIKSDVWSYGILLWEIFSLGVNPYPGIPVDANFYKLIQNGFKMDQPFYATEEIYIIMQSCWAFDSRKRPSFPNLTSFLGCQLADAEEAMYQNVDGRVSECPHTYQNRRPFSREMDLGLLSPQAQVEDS
Description: as §1, §2

METTL3/METTL14 = METTL3/METTL14 (Homo sapiens, UniProt Q86U44); test: METTL3-14 standard enzyme assay (3H-SAM flashplate); conditions: Table 4; METTL3 biochemical assay
Sequence of METTL3/METTL14 (Q86U44 whole entry, species assumed): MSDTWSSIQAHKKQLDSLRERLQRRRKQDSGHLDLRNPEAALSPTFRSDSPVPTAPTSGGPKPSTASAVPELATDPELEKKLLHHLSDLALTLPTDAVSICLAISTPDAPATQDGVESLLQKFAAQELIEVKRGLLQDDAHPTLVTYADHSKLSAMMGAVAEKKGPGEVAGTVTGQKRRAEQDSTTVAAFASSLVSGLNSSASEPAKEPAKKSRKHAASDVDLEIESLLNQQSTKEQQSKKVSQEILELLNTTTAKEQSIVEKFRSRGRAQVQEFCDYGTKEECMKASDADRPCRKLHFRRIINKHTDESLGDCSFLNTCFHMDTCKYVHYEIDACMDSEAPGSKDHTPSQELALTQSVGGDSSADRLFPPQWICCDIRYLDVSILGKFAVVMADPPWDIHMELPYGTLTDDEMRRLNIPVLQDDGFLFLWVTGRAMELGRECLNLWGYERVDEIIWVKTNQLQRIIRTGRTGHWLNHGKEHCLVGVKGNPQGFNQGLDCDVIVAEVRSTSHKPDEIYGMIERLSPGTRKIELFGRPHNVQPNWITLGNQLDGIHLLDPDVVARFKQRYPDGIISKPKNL
Sequence of METTL3/METTL14 (Q9HCE5 whole entry partner, species assumed): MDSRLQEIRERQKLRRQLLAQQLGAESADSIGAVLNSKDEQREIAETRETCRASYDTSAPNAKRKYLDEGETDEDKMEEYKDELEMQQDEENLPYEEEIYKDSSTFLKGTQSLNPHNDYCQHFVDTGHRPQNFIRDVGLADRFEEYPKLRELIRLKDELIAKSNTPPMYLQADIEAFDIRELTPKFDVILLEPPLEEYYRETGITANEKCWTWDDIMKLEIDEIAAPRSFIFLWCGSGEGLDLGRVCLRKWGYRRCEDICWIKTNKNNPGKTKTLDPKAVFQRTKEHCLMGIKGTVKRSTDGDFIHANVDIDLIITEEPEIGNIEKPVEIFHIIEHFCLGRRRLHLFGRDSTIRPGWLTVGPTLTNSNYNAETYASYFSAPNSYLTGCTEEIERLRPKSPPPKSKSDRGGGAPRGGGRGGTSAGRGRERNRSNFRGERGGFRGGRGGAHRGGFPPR
Method in brief: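 Radiometric methyltransferase read-out: after quenching with excess unlabelled SAM (15 μM), biotinylated RNA was captured on streptavidin flashplates (2 h, 25° C) and counted. Reactions contained 2.5 nM enzyme (5 min preincubation), 100 nM RNA and 100 nM 3H-SAM, ran 30 min in HEPES pH 7.5 buffer with KCl, MgCl2, DTT.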

Sequence of PRMT5-MEP50 (O14744 whole entry): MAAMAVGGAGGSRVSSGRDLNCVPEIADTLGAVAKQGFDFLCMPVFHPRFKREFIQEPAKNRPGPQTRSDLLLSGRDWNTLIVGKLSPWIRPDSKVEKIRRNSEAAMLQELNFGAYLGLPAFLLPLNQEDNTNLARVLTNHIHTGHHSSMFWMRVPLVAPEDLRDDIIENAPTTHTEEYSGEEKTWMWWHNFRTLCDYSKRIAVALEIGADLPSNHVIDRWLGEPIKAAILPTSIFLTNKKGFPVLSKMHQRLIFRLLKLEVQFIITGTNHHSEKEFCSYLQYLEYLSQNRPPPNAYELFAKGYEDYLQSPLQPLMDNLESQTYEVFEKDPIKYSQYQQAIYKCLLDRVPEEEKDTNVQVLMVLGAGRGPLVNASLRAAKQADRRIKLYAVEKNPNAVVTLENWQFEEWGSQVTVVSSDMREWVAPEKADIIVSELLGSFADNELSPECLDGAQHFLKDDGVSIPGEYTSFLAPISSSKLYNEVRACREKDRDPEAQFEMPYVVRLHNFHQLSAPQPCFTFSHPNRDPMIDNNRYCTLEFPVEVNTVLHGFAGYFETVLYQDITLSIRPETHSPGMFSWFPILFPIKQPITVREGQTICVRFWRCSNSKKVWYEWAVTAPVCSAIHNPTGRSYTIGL
Sequence of PRMT5-MEP50 (Q9BQA1 whole entry partner): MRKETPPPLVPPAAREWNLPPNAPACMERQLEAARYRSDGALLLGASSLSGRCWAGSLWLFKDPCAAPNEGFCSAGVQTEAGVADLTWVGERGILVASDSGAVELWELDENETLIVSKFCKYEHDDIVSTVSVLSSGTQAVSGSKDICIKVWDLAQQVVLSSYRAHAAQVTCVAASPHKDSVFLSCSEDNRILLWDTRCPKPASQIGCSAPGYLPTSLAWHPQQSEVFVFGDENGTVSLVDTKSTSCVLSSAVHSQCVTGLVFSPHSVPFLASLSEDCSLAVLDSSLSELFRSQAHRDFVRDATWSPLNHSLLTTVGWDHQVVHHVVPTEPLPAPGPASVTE

Row | Structure (SMILES) | IC50 (PRMT5-MEP50) | IC50 (FLT3) | IC50 (FLT3-ITD) | IC50 (METTL3/METTL14)
1 | Cn1ccc(-c2cn([C@@H]3O[C@H](C(=O)NC4CCc5nc(N)sc5C4)[C@@H](O)[C@H]3O)c3ncnc(N)c23)n1 (stereo in doubt) [Compound I-161] | 0.1 to 1 µM | ≥ 1 µM | ≥ 1 µM | 0.1 to 1 µM
2 | Cn1ccc(-c2cn([C@@H]3O[C@H](C(=O)Nc4ccc5ccc(N6CCC6)nc5c4)[C@@H](O)[C@@H]3F)c3ncnc(N)c23)n1 [Compound I-33, (2S,3R,4S,5R)-5-[4-amino-5-(1-methyl-1H-pyrazol-3-yl)-7H-pyrrolo[2,3-d]pyrimidin-7-yl]-N-[2-(azetidin-1-yl)quinolin-7-yl]-4-fluoro-3-hydroxyoxolane-2-carboxamide] | ≥ 1 µM | ≥ 1 µM | ≥ 1 µM | < 0.01 µM
3 | Nc1ncnc2c1ccn2[C@@H]1O[C@H](C(=O)Nc2ccc3ccc(N4CCC4)nc3c2)[C@@H](O)[C@@H]1F [Compound I-34, (2S,3R,4S,5R)-5-{4-amino-7H-pyrrolo[2,3-d]pyrimidin-7-yl}-N-[2-(azetidin-1-yl)quinolin-7-yl]-4-fluoro-3-hydroxyoxolane-2-carboxamide] | ≥ 1 µM | ≥ 1 µM | ≥ 1 µM | 0.01 to 0.1 µM
4 | CCNc1ccnc(NC(=O)[C@H]2O[C@@H](n3cc(-c4ccn(C)n4)c4c(N)ncnc43)[C@H](O)[C@@H]2O)n1 [Compound I-36] | 0.1 to 1 µM | ≥ 1 µM | ≥ 1 µM | ≥ 1 µM
5 | CC(=O)N1CCC(NC(=O)[C@H]2O[C@@H](n3cc(-c4ccn(C)n4)c4c(N)ncnc43)[C@H](O)[C@@H]2O)CC1 [Compound I-37] | ≥ 1 µM | ≥ 1 µM | ≥ 1 µM | ≥ 1 µM
6 | COc1cccc(CNC(=O)[C@H]2O[C@@H](n3cc(-c4ccn(C)n4)c4c(N)ncnc43)[C@H](O)[C@@H]2O)c1 [Compound I-40] | 0.1 to 1 µM | ≥ 1 µM | ≥ 1 µM | 0.1 to 1 µM
7 | N#Cc1cn([C@@H]2O[C@H](C(=O)Nc3ccc4ccc(N5CCC5)nc4c3)[C@@H](O)[C@H]2O)c2ncnc(N)c12 [Compound I-52, (2S,3S,4R,5R)-5-{4-amino-5-cyano-7H-pyrrolo[2,3-d]pyrimidin-7-yl}-N-[2-(azetidin-1-yl)quinolin-7-yl]-3,4-dihydroxyoxolane-2-carboxamide] | 0.1 to 1 µM | 0.1 to 1 µM | 0.1 to 1 µM | 0.01 to 0.1 µM
8 | CN1CCC(NC(=O)[C@H]2O[C@@H](n3cc(-c4ccn(C)n4)c4c(N)ncnc43)[C@@H](F)[C@@H]2O)CC1 [Compound I-60] | ≥ 1 µM | ≥ 1 µM | ≥ 1 µM | 0.1 to 1 µM
9 | CNc1nc2ccc(NC(=O)[C@H]3O[C@@H](n4cc(-c5ccn(C)n5)c5c(N)ncnc54)[C@H](O)[C@@H]3O)cc2[nH]1 [Compound I-142] | < 0.01 µM | ≥ 1 µM | ≥ 1 µM | < 0.01 µM
10 | CCN(CC)C(=O)[C@H]1O[C@@H](n2cc(-c3ccn(C)n3)c3c(N)ncnc32)[C@H](O)[C@@H]1O [Compound I-150] | 0.1 to 1 µM | ≥ 1 µM | ≥ 1 µM | ≥ 1 µM
11 | Cn1ccc(-c2cn([C@@H]3O[C@H](C(=O)Nc4cccnc4)[C@@H](O)[C@H]3O)c3ncnc(N)c23)n1 [Compound I-156] | 0.01 to 0.1 µM | ≥ 1 µM | ≥ 1 µM | 0.1 to 1 µM
12 | COc1cccc(NC(=O)[C@H]2O[C@@H](n3cc(-c4ccn(C)n4)c4c(N)ncnc43)[C@H](O)[C@@H]2O)c1 [Compound I-157] | 0.1 to 1 µM | ≥ 1 µM | ≥ 1 µM | ≥ 1 µM
13 | Cn1ccc(-c2cn([C@@H]3O[C@H](C(=O)Nc4cc(F)cc(F)c4)[C@@H](O)[C@H]3O)c3ncnc(N)c23)n1 [Compound I-158] | 0.1 to 1 µM | ≥ 1 µM | ≥ 1 µM | ≥ 1 µM
14 | Cn1ccc(-c2cn([C@@H]3O[C@H](C(=O)NCCc4cccnc4)[C@@H](O)[C@H]3O)c3ncnc(N)c23)n1 [Compound I-160] | 0.01 to 0.1 µM | ≥ 1 µM | ≥ 1 µM | ≥ 1 µM
15 | Cn1ccc(-c2cn([C@@H]3O[C@H](C(=O)Nc4cc(NC5CCC5)ccn4)[C@@H](O)[C@H]3O)c3ncnc(N)c23)n1 [Compound I-162] | 0.01 to 0.1 µM | ≥ 1 µM | ≥ 1 µM | 0.1 to 1 µM
16 | Cn1ccc(-c2cn([C@@H]3O[C@H](C(=O)Nc4cc(NCC5CC5)ccn4)[C@@H](O)[C@H]3O)c3ncnc(N)c23)n1 [Compound I-163] | 0.01 to 0.1 µM | ≥ 1 µM | ≥ 1 µM | 0.1 to 1 µM
17 | Cn1ccc(-c2cn([C@@H]3O[C@H](C(=O)Nc4cc(NC5CCC5)ncn4)[C@@H](O)[C@H]3O)c3ncnc(N)c23)n1 [Compound I-164] | 0.1 to 1 µM | ≥ 1 µM | ≥ 1 µM | ≥ 1 µM
18 | COCCNc1ccnc(NC(=O)[C@H]2O[C@@H](n3cc(-c4ccn(C)n4)c4c(N)ncnc43)[C@H](O)[C@@H]2O)c1 [Compound I-165] | 0.1 to 1 µM | ≥ 1 µM | ≥ 1 µM | 0.1 to 1 µM
19 | CN(C)c1ccnc(NC(=O)[C@H]2O[C@@H](n3cc(-c4ccn(C)n4)c4c(N)ncnc43)[C@H](O)[C@@H]2O)c1 [Compound I-166] | 0.01 to 0.1 µM | ≥ 1 µM | ≥ 1 µM | 0.1 to 1 µM
20 | Cn1ccc(-c2cn([C@@H]3O[C@H](C(=O)Nc4ccccc4)[C@@H](O)[C@H]3O)c3ncnc(N)c23)n1 [Compound I-173] | – | ≥ 1 µM | ≥ 1 µM | 0.1 to 1 µM
